Laboratory results: publication PMC13086964, “USP7 deubiquitinase stabilizes FAN1 to support DNA crosslink repair and suppress CAG repeat expansion” (Nature Communications, 2026)

Assays:
Assay type in all cases: cell-based, human
RPE-1 p53 KO cells = experiment: clonogenic survival assay, RPE-1 p53 KO; details: 24 h, n = 3
Method: Fig. 4 USP7 facilitates FAN1 localization and function during ICL repair. A QIBC analysis of chromatin-bound GFP-FAN1 foci in U2OS^eGFP-FAN1 cells transfected with either non-targeting (Ctrl), USP7 or FANCD2 siRNA oligos. 24 h later, cells were either mock-treated (–) or treated (+) with MMC (150 ng/ml) for 24 h. Color-coded scatterplots (from grey to green) indicate the number of GFP-FAN1 foci per nucleus from one biological replicate. Mean (solid line) and standard deviation (SD) from the mean (dashed lines) are indicated. Representative images are shown (bottom). Scale bar: 10 μm. This experiment was repeated three times. B QIBC analysis of endogenous FANCD2 foci in U2OS^eGFP-FAN1 cells transfected with either non-targeting (Ctrl) or the indicated siRNA oligos. 24 h later, cells were either mock-treated (−) or treated (+) with MMC (150 ng/ml) for 24 h. […] 24 h later, cells were either mock-treated (−) or treated (+) with MMC (1 μg/ml) for 48 h and whole-cell lysates were analysed by immunoblotting. […] Relative FAN1, cleaved PARP-1 or cleaved Caspase-3 protein levels were determined by quantification of the respective band intensity (normalized to GAPDH) with the ImageJ software. […]
HeLa and RPE-1 p53 KO cells were transfected with the indicated siRNA. […] For analysis, plates were scanned and analysed with the ImageJ Plugin ColonyArea using the parameter “intensity percent”.

HeLa cells = experiment: clonogenic survival assay, HeLa parental; details: MMC 10, 20, and 40 ng/ml, 24 h, n=4
Method: HeLa and RPE-1 p53 KO cells were transfected with the indicated siRNA. The next day, the cells were seeded in six-well plates. The next day, the cells were treated with MMC for 24 h. Plates were then washed twice with 2 ml of PBS before adding fresh growth medium to the cells, that were then cultured for 13 days at 37 °C before fixation with crystal violet solution [0.5% crystal violet and 20% ethanol (w/v)]. For analysis, plates were scanned and analysed with the ImageJ Plugin ColonyArea using the parameter “intensity percent”. […]
the mean (dashed lines) are indicated. Representative images are shown (bottom). Scale bar: 10 μm. […]
Western blot analysis of HeLa cells depleted of the indicated factors. (E) Clonogenic survival assay of the HeLa cells depleted of the indicated factors (Ctrl: black circle; FANCD2: red square; USP7#1: inverted blue triangle; USP7#2: cyan triangle; RAD18: brown diamond) and exposed to increasing doses of MMC for 24 h. Viability of untreated cells was defined as 100%. Data are presented as the means ± SD of four biological replicates (n=4). Representative images are shown (left). (F) Western blot analysis of HeLa and HeLa FAN1 KO cells depleted of the indicated factors. […]

[1] = test system: HeLa parental and FAN1 KO cells; experiment: apoptosis: PARP-1 and caspase-3 cleavage, HeLa; details: 48 h
Method: Fig. 4 USP7 facilitates FAN1 localization and function during ICL repair. A QIBC analysis of chromatin-bound GFP-FAN1 foci in U2OS^eGFP-FAN1 cells transfected with either non-targeting (Ctrl), USP7 or FANCD2 siRNA oligos. 24 h later, cells were either mock-treated (–) or treated (+) with MMC (150 ng/ml) for 24 h. Color-coded scatterplots (from grey to green) indicate the number of GFP-FAN1 foci per nucleus from one biological replicate. Mean (solid line) and standard deviation (SD) from the mean (dashed lines) are indicated. Representative images are shown (bottom). Scale bar: 10 μm. This experiment was repeated three times. B QIBC analysis of endogenous FANCD2 foci in U2OS^eGFP-FAN1 cells transfected with either non-targeting (Ctrl) or the indicated siRNA oligos. 24 h later, cells were either mock-treated (−) or treated (+) with MMC (150 ng/ml) for 24 h. Color-coded scatterplots (from grey to blue) indicate the number of FANCD2 foci per nucleus from one biological replicate. Mean (solid line) and standard deviation (SD) from the mean (dashed lines) are indicated. […] 24 h later, cells were either mock-treated (−) or treated (+) with MMC (1 μg/ml) for 48 h and whole-cell lysates were analysed by immunoblotting. […] Relative FAN1, cleaved PARP-1 or cleaved Caspase-3 protein levels were determined by quantification of the respective band intensity (normalized to GAPDH) with the ImageJ software. […]

CO[C@@]12[C@H](COC(N)=O)C3=C(C(=O)C(C)=C(N)C3=O)N1C[C@@H]1N[C@@H]12 [MMC, Mitomycin C]
MMC sensitivity, FAN1/USP7 co-depletion (RPE-1 p53 KO cells): did not enhance sensitivity beyond individual knock-down of FAN1 | MMC sensitivity, FANCD2-depleted (RPE-1 p53 KO cells): strongest MMC sensitivity | MMC sensitivity, RAD18 or FANCD2 depletion (HeLa cells): more pronounced effects | MMC sensitivity, USP7 depletion (HeLa cells; two independent USP7 siRNA): only a modest increase MMC sensitivity | apoptosis (cleavage of PARP-1 and caspase-3) ([1]; HeLa FAN1 KO cells depleted of USP7, MMC 1 µg/ml): further amplified | apoptosis (cleavage of PARP-1 and caspase-3) ([1]; HeLa, USP7 depletion or FAN1 loss, MMC 1 µg/ml): increased apoptosis
